Assay results from patent US6913748B2, “Cross-linkers with high reactivity and solubility and their use in the preparation of conjugates for targeted delivery of small molecule drugs” (Immunogen, Inc., priority 2002, dated 2005).

Legend:
[1] = Unconjugated (free) drug by reverse phase HPLC analysis of the conjugate sample; conditions: N901-DM1 conjugate, 1.7-fold DM1
Procedure: (§1) The increased efficiency of conjugation using the SSNPP linker is accomplished without compromise in the monomeric character of the conjugate and in the amount of unconjugated (free) drug associated with the antibody conjugate. SEC analysis is used to determine the amount of monomer, dimer, trimer, or higher molecular weight aggregates. The level of unconjugated drug was measured by reverse phase HPLC analysis of the conjugate sample. The percent free drug for either reaction was less than 2%. In addition, shorter conjugation reaction times are possible with SSNPP compared with SPP (5), which may decrease loss of some antibodies that are sensitive to prolonged exposure to organic solvent required in the conjugation reaction. Shorter reaction times should also decrease drug loss due to DM1 dimerization, which is a competing side reaction during conjugation. The resulting increases in yield and reduced side reactions should further contribute to reduced DM1 requirements.

[2] = SEC analysis of conjugate (monomer, dimer, trimer, higher molecular weight aggregates); assay type: physicochemical; conditions: N901-DM1 conjugate; conjugation at pH 7.4, 2 hours, 1.7-fold DM1
Procedure: as §1

N901 antibody with DM1 = assay: Conjugation (disulfide exchange) of linker-modified N901 antibody with DM1; set-up: species or system murine; conditions: pH 7.4; 1.1-fold molar excess of DM1 per linker; compared with SPP-modified antibody
Procedure: SPP or SSNPP linker was dissolved in ethanol at a concentration of approximately 10 mM. Antibody was dialyzed into buffer A (50 mM KPi, 50 mM NaCl, 2 mM EDTA, pH 6.5). For the linker reaction, the antibody was at 8 mg/ml, and 7 equivalents of linker were added while stirring in the presence of 5% (v/v) ethanol. The reaction was allowed to proceed at ambient temperature for 90 minutes. Unreacted linker was removed from the antibody by Sephadex G25 gel filtration using a Sephadex G25 column equilibrated with Buffer A at pH 6.5 or 150 mM potassium phosphate buffer containing 100 mM NaCl, pH 7.4 as indicated. For the SPP linker, the extent of modification was assessed by release of pyridine-2-thione using 50 mM DTT and measuring the absorbance at 343 nm as described below (ε343=8080 M^−1 cm^−1 for free pyridine-2-thione). For SSNPP, modification was assessed directly by measuring the absorbance at 325 nm (ε325=10,964 M^−1 cm^−1 for the 4-nitropyridyl-2-dithio group linked to antibody). […] For DML, the extent of drug conjugation to antibody was assessed by measuring A252 and A280 of the conjugate as described below. […]
Calculating Ab and DM1 component concentrations of Ab-DM1. […] The components are quantified using the following algebraic expressions which account for the contribution of each component at each wavelength (CAb is the molar concentration of Ab and CD is the molar concentration of DM1): […]

[3] = Solubility of cross-linkers in water / aqueous solutions; assay type: physicochemical

With `CC(CCC(=O)ON1C(=O)CCC1=O)SSc1ccccn1` (centres unmarked) [SPP, reference compound] as the compound, how does the “% free drug” value ([1]; conjugation at pH 6.5, 2 hours) read?
The value was 1.9%.

What about the “% free drug” value ([1]; conjugation at pH 7.4, 2 hours) of the same compound?
Its value is 1.8%.

What about the “SEC Analysis Dimer” value [2] of the same compound?
The value was 4.9%.

And the “SEC Analysis HMW” value [2]?
Its value is 0.2%.

What about the “SEC Analysis Monomer” value [2] of the same compound?
Its value is 93.6%.

And the “SEC Analysis Trimer” value [2]?
The value was 0.4%.

Which “time course of the reaction of DM1 with modified antibody (FIG. 8)” value (N901 antibody with DM1) does the source give for `CC(CCC(=O)ON1C(=O)CC(S(=O)(=O)O)C1=O)SSc1ccc([N+](=O)[O-])cn1` (centres unmarked) [SSNPP, N-Sulfosuccinimidyl 4-(5-nitro-2-pyridyldithio)-pentanoate] here?
The value was “considerably faster”.

And the “% free drug” value ([1]; conjugation at pH 6.5, 2 hours)?
Its value is 0.9%.

What about the “% free drug” value ([1]; conjugation at pH 7.4, 2 hours) of the same compound?
The value was 0.8%.

What about the “SEC Analysis Dimer” value [2] of the same compound?
The value was 6.3%.

And the “SEC Analysis HMW” value [2]?
Its value is 0.1%.

What about the “SEC Analysis Monomer” value [2] of the same compound?
Its value is 91.9%.

What about the “SEC Analysis Trimer” value [2] of the same compound?
The value was 0.6%.

And the “solubility in water / aqueous solutions” value [3]?
Its value is “highly water-soluble”.
